Laboratory results taken from US7067251B2 (priority 2000, dated 2006).

Tests used:
naïve T cells = assay type: cell-based, Human
[1] = system: Mouse splenic T cells activated by plate bound anti-CD3 antibody; details: cited from earlier work
vEL/tk = assay type: cell-based, vaccinia virus
v7.5/tk = assay type: cell-based, vaccinia virus
vaccinia WR = assay type: cell-based, vaccinia virus

Compound	Killing of the total number of T cells (naïve T cells)	T cell death [1]	Concentration sufficient to inhibit plaque formation (vEL/tk)	Plaque formation (vEL/tk)	Concentration sufficient to inhibit plaque formation (v7.5/tk)	Concentration sufficient to interfere with the ability to plaque (vaccinia WR)	Viability of the cells (Hutk^− cell line)
Cn1cc(C2=C(c3cn(CCCN)c4ccccc34)C(=O)NC2=O)c2ccccc21 [Bis VIII, Bisindolylmaleimide VIII]	95%	~100%					
O=c1[nH]c(=O)n([C@H]2C[C@H](O)[C@@H](CO)O2)cc1Br [bromodeoxyuridine]			125 mM	an equal number of plaques, albeit much smaller in size	125 mM	25 mM	does not interfere with the viability of the cells
